Reference: ChEMBL document CHEMBL3734654, “Mutational mapping of the transmembrane binding site of the G-protein coupled receptor TGR5 and binding mode prediction of TGR5 agonists” (Eur J Med Chem, 2015)
Activity calls are given as the source filed them. The calls are words filed in the database; no cut-off is given here.

Tested on: T1, G-protein coupled bile acid receptor 1 (Homo sapiens), Q8TDU6 [E169A]
T1 sequence (whole entry): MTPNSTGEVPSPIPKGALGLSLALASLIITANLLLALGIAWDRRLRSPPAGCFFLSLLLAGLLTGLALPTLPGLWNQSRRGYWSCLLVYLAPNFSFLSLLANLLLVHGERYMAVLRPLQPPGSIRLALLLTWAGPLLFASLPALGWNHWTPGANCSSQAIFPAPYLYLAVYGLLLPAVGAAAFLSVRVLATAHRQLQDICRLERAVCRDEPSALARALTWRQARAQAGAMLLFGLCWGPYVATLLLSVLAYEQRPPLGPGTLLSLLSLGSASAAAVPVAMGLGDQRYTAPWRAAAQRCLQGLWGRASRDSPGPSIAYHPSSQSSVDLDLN
Test: Agonist activity at human TGR5 E169A mutant expressed in HEK293 cells assessed as rise in intracellular cAMP level at 10 uM incubated for 16 hrs by luciferase reporter assay relative to wild type
Format: functional, cell-based

`C=C[C@@]1(C)CC(=O)[C@]2(O)[C@@]3(C)[C@@H](O)CCC(C)(C)[C@@H]3[C@H](O)[C@H](OC(C)=O)[C@@]2(C)O1` was tested, and the Activity was “Active”.
